In publication PMC7306898, “Concentration-Dependent Activity of Hydromethylthionine on Clinical Decline and Brain Atrophy in a Randomized Controlled Trial in Behavioral Variant Frontotemporal Dementia” (Journal of Alzheimer's Disease, 2020):

Experiments:
bvFTD patients [1] = assay: Lateral ventricular volume (LVV) change by MRI; assay type: in vivo, human; conditions: Patients receiving 8 mg/day, vs Cmax,ss ≤[…], 52 weeks
Description: The two doses were provided in identical blister packages as visually identical oral tablets to be taken for up to 52 weeks. The primary outcome was the Addenbrookes Cognitive Examination – Revised (ACE-R). The Functional Activities Questionnaire (FAQ) and reduction in progression of whole brain atrophy were alternative co-primary outcomes. Other outcomes included: Modified Alzheimer’s Disease Cooperative Study – Clinical Global Impression of Change (Modified-CGIC) determined by a third independent rater; Frontotemporal Dementia Rating Scale (FRS); MMSE (from MMSE items incorporated into ACE-R); Addenbrookes Cognitive Examination – III (a revised version of ACE-R which excludes MMSE items subject to copyright restrictions); change in brain volume measured by MRI in frontal and temporal lobes (FTV) and lateral ventricles (LVV); and the effect of hydromethylthionine in patients with known genetic mutations associated with bvFTD. Blood was collected prospectively for the purpose of population PK analyses.
MRI scans were obtained at screening and weeks 16, 32, and 52. The acquisition protocol was standardized across sites and all data were centrally collected, quality-controlled, and analyzed by the imaging core laboratory (Bioclinica). MRI data included a 3D sagittal T1-weighted sequence (using parameters compatible with the ADNI protocol) which was used for all volumetric analyses. […]

bvFTD patients [2] = assay: Exposure-response and expanded Hill equation analysis; assay type: in vivo, human
Protocol: The protocol specified that PK plasma sampling was to be conducted only at sites with adequate facilities (i.e., a refrigerated centrifuge and adequate capability to freeze samples reliably). Blinded analyses were conducted at the University of Aberdeen GLP Test Facility. […] The method was validated for use in the Phase III studies over the range 0.2 to 10 ng/ml. […] Model development and estimation of steady state maximum plasma concentration (Cmax,ss) were determined independently by the Institute of Clinical Pharmacodynamics (ICPD, NY, USA). Cmax,ss estimates using a model validated in Phase I studies were based on in-clinic plasma concentration data obtained on Day 1 when the dose-sampling interval was accurately recorded. […] Change in ACE-R, ACE-III, FAQ, MMSE, Modified-CGIC, FRS, whole brain volume (WBV), lateral ventricular volume (LVV), and frontotemporal volume (FTV), as well as UPDRS Part III, were expressed as a function of Cmax,ss estimates grouped into four groups described in the results section. Cmax,ss values outside 3x the interquartile range were excluded from determination of concentration-response relationships, but were included in inferential statistical analyses.
A further analysis was undertaken (HS, BOS) using a modified form of the Hill equation which is commonly used in the analysis of concentration-response data in order to estimate the minimum and maximum plasma concentrations for expected treatment response over 52 weeks. […] In addition, a linear term was added to permit trends occurring at high concentrations to be included in the model. […] The modified Hill equation was applied to the data in the form:
change in parameter = Emin - (Emax x ([C]- 0.29))/(EC50 + ([C] -0.29)) + (A x ([C] -0.29))
where dose is in mg/day and Cmax,ss is in ng/ml units.

AD patients = system: AD patients; design: method as in PMID 31658058; conditions: cited from earlier work
red blood cells = conditions: cited from earlier work
[3] = design: method as in PMID 31658058; conditions: cited from earlier work
[4] = system: subjects with AD or bvFTD; design: method as in Developmental Safety Update Report #3; conditions: 1713 subjects randomized to LMTM (or matching placebo), blinded, as of 14 October 2014 ref Developmental Safety Update Report #3; cited from earlier work
CYP2B6 = system: CYP2B6; design: method as in Investigator's Brochure; conditions: ref Investigator's Brochure; cited from earlier work

## CN(C)c1ccc2c(c1)Sc1cc(N(C)C)ccc1N2 [hydromethylthionine, leuco-methylthioninium bis(hydromethanesulphonate)]
bvFTD patients [1]
  LVV: Difference±SEM for Cmax,ss > […]: –4.12±1.06 cm^3
bvFTD patients [2]; 8 mg/day dose, bvFTD
  plasma levels over which there are steep concentration-response relationships on clinical and MRI outcomes: 0.3 to 0.6 ng/mL
bvFTD patients [2]; Hill equation analyses
  dose at which pharmacological activity is predicted to peak in bvFTD: ~30 mg/day
bvFTD patients [2]; Hill equation analysis
  doses at which treatment responses in bvFTD are predicted to be maximal / roughly comparable: 20 to 60 mg/day
bvFTD patients [2]; at 30 mg/day dose
  predicted treatment effect on whole brain atrophy: 18.52 cm^3
bvFTD patients [2]; at 30 mg/day dose, mean, bootstrap analysis
  predicted treatment effect on the FAQ scale: 7.73 units
bvFTD patients [2]; expanded Hill equation
  theoretical dose corresponding to the upper limiting concentration: 301 mg/day
bvFTD patients [2]; expanded Hill equation, 8 mg/day
  lower (minimum) limiting plasma concentration required for treatment response: 0.29 ng/mL
bvFTD patients [2]; expanded Hill equation, whole brain volume, 200 mg/day terciles
  upper limiting concentration at which the treatment effect would be lost: 13.6 ng/mL
bvFTD patients [2]; upper limit of the lowest 35% group at 8 mg/day
  plasma concentration (Cmax,ss) threshold required for clinical pharmacological activity in bvFTD: 0.346 ng/ml
AD patients; 8 mg/day dose, AD ref 49
  steady state plasma levels with steep concentration-response relationships on cognitive and MRI outcomes in AD: 0.3 to 0.8 ng/mL
AD patients
  estimated brain concentration required for pharmacological activity: 0.02–0.06 μM
  plasma concentration threshold (Cmax,ss) identified in mild/moderate AD: 0.373 ng/mL
  predicted optimal dose for treatment of AD: about 16 mg/day
AD patients; combined AD and bvFTD populations ref 49
  dose sufficient to ensure that all patients have plasma levels above the threshold required for pharmacological activity: 16 mg/day
AD patients; doses 150–250 mg/day, AD ref 49
  plasma concentrations not associated with any additional benefit in AD: 4 to 21 ng/mL
Red blood cells
  efficiency of uptake into red blood cells relative to MTC: 20 fold
[3]
  brain:plasma ratio compared to MTC: ≥ 60 fold
[4]
  cases of possible serotonin toxicity reported as AEs: 2
CYP2B6
  induction of CYP2B6: w eak in ducer
